From ChEMBL document CHEMBL1157004 (Bioorg Med Chem, 2009)
Calls of active or inactive are those of the source. The rule behind the calls is not given here.

Columns and labels:
Rattus norvegicus [1] = test: Antiamnesic activity against scopolamine-induced dementia in Wistar rat assessed as decrease in occurrence of mistakes at 0.5 mg/kg, po; assay type: functional, organism-based; parameters: dose 0.5 mg/kg
Rattus norvegicus [2] = test: Antiamnesic activity against scopolamine-induced dementia in Wistar rat assessed as basal latency period to reach shock free zone at 0.5 mg/kg, po; assay type: functional
Rattus norvegicus [3] = test: Antiamnesic activity against scopolamine-induced dementia in Wistar rat assessed as latency period to improve memory at 0.5 mg/kg, po; assay type: functional
Rattus norvegicus [4] = test: Antiamnesic activity against scopolamine-induced memory loss and learning impairment in Wistar rat assessed as transfer latency period to reach from open arm to closed arm ends measured on day 1 at 0.5 mg/kg, po by elevated plus maze test; assay type: functional
Rattus norvegicus [5] = test: Antiamnesic activity against scopolamine-induced memory loss and learning impairment in Wistar rat assessed as transfer latency period to reach from open arm to closed arm ends measured on day 2 at 0.5 mg/kg, po by elevated plus maze test; assay type: functional
Rattus norvegicus [6] = test: Antiamnesic activity against scopolamine-induced memory loss and learning impairment in Wistar rat at 0.5 mg/kg, po by Y maze test; assay type: functional, organism-based; parameters: dose 0.5 mg/kg
Rattus norvegicus [7] = test: Cholinergic toxicity in po dosed Wistar rat assessed as occurrence of salivation after 1 week; assay type: organism-based; settings: in vivo, 168 h
Rattus norvegicus [8] = test: Cholinergic toxicity in po dosed Wistar rat assessed as occurrence of defecation after 1 week; assay type: organism-based; settings: in vivo, 168 h
Rattus norvegicus [9] = test: Toxicity in po dosed Wistar rat assessed as mortality within 1 week; assay type: organism-based; settings: in vivo, 168 h
[10] = biological target: T1, Muscarinic acetylcholine receptor M1 (Rattus norvegicus, UniProt P08482); test: Displacement of [3H]QNB from muscarinic M1 receptor in Wistar rat brain cortex after 2 hrs by liquid scintillation counting
T1 sequence (P08482 whole entry): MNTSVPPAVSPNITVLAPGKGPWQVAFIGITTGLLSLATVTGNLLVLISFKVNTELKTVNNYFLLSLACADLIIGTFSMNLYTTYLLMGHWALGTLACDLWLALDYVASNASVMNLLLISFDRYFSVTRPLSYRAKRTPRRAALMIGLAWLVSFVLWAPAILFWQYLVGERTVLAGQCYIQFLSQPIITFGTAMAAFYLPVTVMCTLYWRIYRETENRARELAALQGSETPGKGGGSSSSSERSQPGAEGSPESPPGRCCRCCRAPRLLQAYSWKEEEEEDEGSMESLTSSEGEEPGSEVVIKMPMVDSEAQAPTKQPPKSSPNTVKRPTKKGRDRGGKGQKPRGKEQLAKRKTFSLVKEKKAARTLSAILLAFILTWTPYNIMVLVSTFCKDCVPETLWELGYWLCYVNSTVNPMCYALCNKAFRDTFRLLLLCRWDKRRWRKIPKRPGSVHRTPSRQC

[11] = biological target: T2, Muscarinic acetylcholine receptor M1 (Rattus norvegicus) (UniProt P08482); test: Agonist activity at muscarinic M1 receptor in Wistar rat cerebral cortex assessed as [3H]myoinositol (1,4,5)-triphosphate level per gram of protein at 100 uM after 1 hr by liquid scintillation counting; assay type: functional, tissue-based
T2 sequence (whole entry): T1 sequence (P08482 whole entry)

| Compound | Activity (Rattus norvegicus [1]) | Time (Rattus norvegicus [2]) | Time (Rattus norvegicus [3]) | Time (Rattus norvegicus [4]) | Time (Rattus norvegicus [5]) | Activity (Rattus norvegicus [6]) | Activity (Rattus norvegicus [7]) | Activity (Rattus norvegicus [8]) | Activity (Rattus norvegicus [9]) | IC50 [10] | Ki [10] | Activity [11] |
| --- | --- | --- | --- | --- | --- | --- | --- | --- | --- | --- | --- | --- |
| CN1CCC=C(C2CN(C(=O)c3ccc([N+](=O)[O-])cc3)CCO2)C1 (stereo unspecified) | Active | 10 s | 5 s | 64 s | 52 s | Active | Non-toxic | Non-toxic | Non-toxic |  |  |  |
| CN1CCC=C(C2CN(C(=O)c3ccc(Cl)cc3)CCO2)C1 (stereo unspecified) | Active | 7 s | 3 s | 37 s | 17 s | Active | Non-toxic | Non-toxic | Non-toxic |  |  |  |
| CN1CCC=C(C2CN(C(=O)c3cc(Cl)ccc3Cl)CCO2)C1 (stereo unspecified) | Active | 11 s | 9 s | 66 s | 53 s | Active | Non-toxic | Non-toxic | Non-toxic |  |  |  |
| CN1CCC=C(C2CN(C(=O)c3ccccc3[N+](=O)[O-])CCO2)C1 (stereo unspecified) | Active | 10 s | 5 s | 66 s | 52 s | Active | Non-toxic | Non-toxic | Non-toxic | 618 µM | 126 µM | 0.65 pmol |
| CN1CCC=C(C2CN(C(=O)c3cccc([N+](=O)[O-])c3)CCO2)C1 (stereo unspecified) | Active | 10 s | 4 s | 64 s | 47 s | Active | Non-toxic | Non-toxic | Non-toxic |  |  |  |
| CN1CCC=C(C2CN(C(=O)c3ccccc3)CCO2)C1 (stereo unspecified) | Active | 10 s | 6 s | 53 s | 35 s | Active | Non-toxic | Non-toxic | Non-toxic |  |  |  |
| COC(=O)C1=CCCN(C)C1 [ARECOLINE] |  | 10 s | 5 s | 52 s | 36 s | Active |  |  | Non-toxic |  |  |  |
| CN1CCC=C(C2CN(C(=O)c3ccc(C(C)(C)C)cc3)CCO2)C1 (stereo unspecified) | Active | 11 s | 6 s | 65 s | 53 s | Active | Non-toxic | Non-toxic | Non-toxic |  |  |  |
| Cc1ccc(C(=O)N2CCOC(C3=CCCN(C)C3)C2)cc1 (stereo unspecified) | Active | 8 s | 4 s | 33 s | 13 s | Active | Non-toxic | Non-toxic | Non-toxic |  |  |  |
